Tests used:
ECHCG [1] = assay: Pre-emergence herbicidal action against ECHCG; assay type: in vivo, Echinochloa crus-galli; details: scored visually after about 3 weeks vs untreated controls, 100% = plants have died, 0% = like control plants
In short: (§1)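 Scoring is visual, in percent relative to untreated pots, roughly 3 weeks after soil-surface application. Rates were 1280 or 320 g/ha, delivered as WP or EC preparations with 0.5% additive in 600 L/ha water onto freshly sown, covered sandy loam.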

SETVI [2] = assay: Pre-emergence herbicidal action against SETVI; assay type: in vivo, Setaria viridis; details: 1280 g/ha, scored visually after about 3 weeks vs untreated controls
In short: as §1

AMARE [3] = assay: Pre-emergence herbicidal action against AMARE; assay type: in vivo, Amaranthus retroflexus; details: scored visually after about 3 weeks vs untreated controls; for Pre-emergence action against AMARE in %: 1280 g/ha; for Pre-emergence action at 320 g/ha against AMARE in %: 100% = plants have died, 0% = like control plants
In short: as §1

POLCO [4] = assay: Pre-emergence herbicidal action against POLCO; assay type: in vivo, Polygonum convolvulus; details: 320 g/ha, scored visually after about 3 weeks vs untreated controls
Excerpt: (§2) Seeds of mono- and dicotyledonous weed plants are placed in plastic pots in sandy loam soil (doubly sown with one species each of mono- or dicotyledonous weed plants per pot) and covered with soil. The compounds of the invention, formulated in the form of wettable powders (WP) or as emulsion concentrates (EC), are then applied onto the surface of the covering soil as aqueous suspension or emulsion with addition of 0.5% additive at a water application rate equivalent to 600 litres per hectare. After the treatment, the pots are placed in a greenhouse and kept under good growth conditions for the trial plants. After about 3 weeks, the effect of the preparations is scored visually in comparison with untreated controls as percentages. For example, 100% activity=the plants have died, 0% activity=like control plants. [table] Tables 4.1-4.15 below show the effects of selected compounds of the general formula (I) according to Tables 1 to 3 on various harmful plants at an application rate corresponding to 1280 or 320 g/ha, which have been obtained by the aforementioned experimental method.

STEME [5] = assay: Pre-emergence herbicidal action against STEME; assay type: in vivo, Stellaria media; details: scored visually after about 3 weeks vs untreated controls
In short: as §1

VERPE [6] = assay: Pre-emergence herbicidal action against VERPE; assay type: in vivo, Veronica persica; details: 320 g/ha, scored visually after about 3 weeks vs untreated controls
Excerpt: as §2

AMARE [7] = assay: Post-emergence herbicidal action against AMARE; assay type: in vivo, Amaranthus retroflexus; details: visual rating about 3 weeks after treatment
In short: (§3)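 Visual scoring, where 100% = dead and 0% = like untreated plants, was done about 3 weeks after treatment. Dose was 1280 or 320 g/ha, delivered as aqueous WP/EC suspension or emulsion with 0.5% additive at 600 L/ha. Pot-grown weeds in sandy loam were treated post-emergence at one leaf, 2-3 weeks post-sowing.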

PHBPU = assay: Post-emergence herbicidal action against PHBPU; assay type: in vivo, Pharbitis purpurea; details: 320 g/ha, visual rating about 3 weeks after treatment
Protocol: (§4) [table] Seeds of mono- and dicotyledonous weed plants are placed in plastic pots in sandy loam soil (twin sowing with one species each of mono- or dicotyledonous weed plants per pot), covered with soil and cultivated in a greenhouse under controlled growth conditions. 2 to 3 weeks after sowing, the test plants are treated at the one-leaf stage. The compounds of the invention, formulated in the form of wettable powders (WP) or as emulsion concentrates (EC), are applied to the green parts of the plants as aqueous suspension or emulsion with addition of 0.5% additive at a water application rate equivalent to 600 litres per hectare. After the test plants have been kept in the greenhouse under optimum growth conditions for about 3 weeks, the activity of the preparations is rated visually in comparison to untreated controls. For example, 100% activity=the plants have died, 0% activity=like control plants. Tables 5.1-5.16 below show the effects of selected compounds of the general formula (I) according to Tables 1 to 3 on various harmful plants at an application rate corresponding to 1280 or 320 g/ha, which have been obtained by the aforementioned experimental method.

POLCO [8] = assay: Post-emergence herbicidal action against POLCO; assay type: in vivo, Polygonum convolvulus; details: 320 g/ha, visual rating about 3 weeks after treatment
Protocol: as §4

VIOTR = assay: Post-emergence herbicidal action against VIOTR; assay type: in vivo, Viola tricolor; details: 320 g/ha, visual rating about 3 weeks after treatment
Protocol: as §4

VERPE [9] = assay: Post-emergence herbicidal action against VERPE; assay type: in vivo, Veronica persica; details: 320 g/ha, visual rating about 3 weeks after treatment
Protocol: as §4

MATIN = assay: Post-emergence herbicidal action against MATIN; assay type: in vivo, Matricaria inodora; details: visual rating about 3 weeks after treatment
In short: as §3

STEME [10] = assay: Post-emergence herbicidal action against STEME; assay type: in vivo, Stellaria media; details: visual rating about 3 weeks after treatment
In short: as §3

ECHCG [11] = assay: Post-emergence herbicidal action against ECHCG; assay type: in vivo, Echinochloa crus-galli; details: 1280 g/ha, post-emergence at one-leaf stage, rated visually after about 3 weeks vs untreated controls
Protocol: as §4

SETVI [12] = assay: Post-emergence herbicidal action against SETVI; assay type: in vivo, Setaria viridis; details: 1280 g/ha, post-emergence at one-leaf stage, rated visually after about 3 weeks vs untreated controls
In short: as §3

Compound | Pre-emergence action at 1280 g/ha against ECHCG in % (ECHCG [1]) [%] | Pre-emergence action against SETVI in % (SETVI [2]) [%] | Pre-emergence action against AMARE in % (AMARE [3]) [%] | Pre-emergence action against POLCO in % (POLCO [4]) [%] | Pre-emergence action against STEME in % (STEME [5]; 1280 g/ha) [%] | Pre-emergence action against VERPE in % (VERPE [6]) [%] | Post-emergence action against AMARE in % (AMARE [7]; 320 g/ha) [%] | Post-emergence action against PHBPU in % (PHBPU) [%] | Post-emergence action against POLCO in % (POLCO [8]) [%] | Post-emergence action against VIOTR in % (VIOTR) [%] | Post-emergence action against VERPE in % (VERPE [9]) [%] | Pre-emergence action at 320 g/ha against AMARE in % (AMARE [3]) [%] | Pre-emergence action against STEME in % (STEME [5]; 320 g/ha) [%] | Post-emergence action against AMARE in % (AMARE [7]; 1280 g/ha) [%] | Post-emergence action against MATIN in % (MATIN; 320 g/ha) [%] | Post-emergence action against MATIN in % (MATIN; 1280 g/ha) [%] | Post-emergence action against STEME in % (STEME [10]; 1280 g/ha) [%] | Post-emergence action against ECHCG in % (ECHCG [11]) [%] | Post-emergence action against SETVI in % (SETVI [12]) [%] | Post-emergence action against STEME in % (STEME [10]; 320 g/ha) [%]
C=CCNC(=O)COc1nn(-c2ccc(F)cc2)c(-c2cccc(F)c2)c1Br [III-015] | 100 | 100 | 100 | 90 | 100 | 90 | 80 | 80 | 80 | 80 | 90 |  |  |  |  |  |  |  |  | 
C[Si](C)(C)COC(=O)COc1nn(-c2ccccc2F)c(-c2ccc(F)c(F)c2)c1Br [I-102] | 100 | 100 | 100 | 100 | 90 | 80 | 80 | 90 |  | 90 | 80 | 90 | 90 | 90 | 80 | 100 | 100 |  |  | 
CCOC(=O)COc1nn(-c2ccc(F)cc2F)c(-c2ccccc2)c1Br [I-079] | 90 | 100 | 100 | 80 | 100 |  | 80 | 90 | 80 | 100 | 80 | 80 |  | 100 | 80 | 100 | 100 | 100 | 100 | 
O=C(O)COc1nn(-c2ccccc2F)c(-c2ccccc2)c1Br [I-082] |  |  |  | 80 |  | 80 | 80 | 90 |  | 100 | 80 | 90 |  |  | 80 |  |  |  |  | 
C#CCNC(=O)COc1nn(-c2ccccc2)c(-c2ccc(F)cc2)c1Br [III-006] | 100 | 100 | 90 | 90 | 100 | 90 | 80 | 80 |  | 80 | 80 | 90 |  | 100 |  |  |  |  |  | 
COC(=O)COc1nn(-c2ccc(Cl)cc2)c(-c2ccccc2)c1Cl [I-001] |  |  |  | 90 |  |  |  |  |  |  |  |  |  |  |  |  |  |  |  | 
COC(=O)COc1nn(-c2ccccc2)c(-c2ccc(F)cc2)c1Br [I-101] | 100 | 100 | 90 | 100 | 100 |  | 80 | 90 |  | 100 | 80 | 90 |  | 100 | 90 | 90 |  |  |  | 
CCOC(=O)COc1nn(-c2ccc(F)cc2F)c(-c2ccc(F)cc2)c1Br [I-081] | 90 | 100 | 100 | 100 | 100 | 80 | 90 | 90 | 80 | 100 | 80 | 80 | 80 | 100 | 80 | 100 | 100 | 90 | 90 | 80

Reference: US20230066946A1, “1,5-DIPHENYLPYRAZOLYL-3-OXYALKYL ACIDS AND 1-PHENYL-5-THIENYLPYRAZOLYL-3-OXYALKYL ACIDS AND THE USE THEREOF FOR CONTROL OF UNWANTED PLANT GROWTH” (Bayer Aktiengesellschaft, priority 2019, published 2023)
